{"source": "patent US11938106B2", "about": "“Treatment of tinnitus using glutamate receptor agonists” (Northeast Ohio Medical University, priority 2016, dated 2024)", "key": {"[1]": {"test_system": "IC neurons", "assay": "Extracellular recording of neuronal firing in the inferior colliculus of awake mice before, during and after systemic drug injection", "format": "in vivo, mouse", "description": "(§1) Adult CBA/CaJ mice were used for the study. […] Injection was performed remotely via an intravenous catheter inserted into the tail vein. Spontaneous firing rates of IC neurons were measured and compared before, during, and after of drug injection. To test whether this drug is affecting general sound processing in the auditory system of mice, the acoustic startle reflex and gap detection performance were also assessed.\n(§2) The animals used were CBA/CaJ male mice, 8 months to 1.5 years old. Extracellular recording was carried out using Quartz micropipettes filled with 1M potassium acetate solution, 10-20 M ohms. Local field potential (LFP) was evaluated using a chronically implanted 4 channel multi-electrode array chronically implanted into IC in a freely moving animal via wireless recording system. For drug administration, the Group II mGluR agonist was administered via intravenous (3.5 mg/kg) or intraperitoneal (5 mg/kg) injections while recording neural activity. To evaluate startle input/output function, startle intensities were randomized within the range from 70 dB to 120 dB SPL. Startle was a broad band noise 20 ms duration. Inter-trial intervals were pseudo randomized between 15 and 25 sec. For gap detection, two trials were carried out. Trial I—The acoustic startle (110 dB SPL, 20 ms duration, wideband noise) imbedded in continuous background noise (65 dB SPL, third octave, centered at 10, 12.5, 16, 20, 25, and 31.5 kHz). Trial II—Trial I paired with a 20 ms gap embedded into background noise and presented 100 ms before the startle. Inter-trial intervals were pseudo randomized between 10 and 17 sec."}, "[2]": {"test_system": "inferior colliculus (auditory midbrain)", "assay": "Local field potentials (sound evoked activity) recorded in the IC of awake mice", "format": "in vivo, mouse", "settings": "systemic administration, FIG. 13", "description": "FIG. 13 provides graphs showing that a group II mGluR agonist enhances of sound evoked activity in the IC. Local field potentials (LFPs) recorded in the IC of awake mice in response to 30 ms wideband noise (1-100 kHz, 80 dB SPL) recorded before, 30 min and 90 min after drug administration. LFPs shown here were generated based on 130 repetitions. SEMs are shown by grey\nas §2, with “Trial II—Trial I paired with a 20 ms gap embedded into background noise and presented 100 ms before the startle. Inter-trial intervals were pseudo randomized between 10 and 17 sec.” left out"}, "[3]": {"assay": "Acoustic startle reflex (startle input/output function)", "format": "in vivo, mouse", "settings": "in 6 out of 7 mice tested, FIG. 14A, 30 min after drug administration", "description": "as §1\nas §2, with “Trial I—The acoustic startle (110 dB SPL, 20 ms duration, wideband noise) imbedded in continuous background noise (65 dB SPL, third octave, centered at 10, 12.5, 16, 20, 25, and 31.5 kHz). Trial II—Trial I paired with a 20 ms gap embedded into background noise and presented 100 ms before the startle. Inter-trial intervals were pseudo randomized between 10 and 17 sec.” left out"}, "[4]": {"assay": "Gap detection performance (gap-induced suppression of acoustic startle) in mice", "format": "in vivo, mouse", "settings": "7 mice, FIG. 14B, 30 min after drug administration", "description": "as §1\nas §2, with “Trial I—The acoustic startle (110 dB SPL, 20 ms duration, wideband noise) imbedded in continuous background noise (65 dB SPL, third octave, centered at 10, 12.5, 16, 20, 25, and 31.5 kHz). Trial II—Trial I paired with a 20 ms gap embedded into background noise and presented 100 ms before the startle. Inter-trial intervals were pseudo randomized between 10 and 17 sec.” left out"}, "[5]": {"assay": "Gap detection performance for behavioral assessment of tinnitus in the tinnitus mouse model", "format": "in vivo", "settings": "one mouse, FIG. 17", "description": "Mice were assessed for tinnitus 3 months after exposure. The ability of mice to detect a gap of silence preceding the startle stimulus was determined using commercial hardware/software equipment from Kinder Scientific, Inc. Mice were placed in a small restrainer situated on a plate with a pressure sensor. Any animal motion was detected by the sensor which measured its amplitude and stored data on the computer hard drive. Kinder Scientific software was used to generate a sequence of stimulus trials including a startle stimulus presented alone (STARTLE) and a startle stimulus paired with a gap (GAP+STARTLE) embedded into continuous background noise. The background consisted of narrow-band (1/3 octave) noise centered at six different frequencies (10, 12.5, 16, 20, 25, and 31.5 kHz). […]\nTherefore, the data in each session were statistically analyzed to remove outliers (Grubbs' test for outliers). […] To calculate the GAP+STARTLE/STARTLE ratio we calculated the mean for all STARTLE values. […]\nThe presence of tinnitus in each mouse is assessed by pre-pulse inhibition of the acoustic startle reflex using the procedure developed by Turner et al. Turner et al., Behav Neurosci 120:188-195 (2006). […] The inventor measured the ratio of the startle response amplitude when preceded by a gap of silence over the startle response amplitude without preceded gap. […]"}}}
{"smiles": "N[C@@]1(C(=O)O)CC[C@H]2[C@H](C(=O)O)[C@H]21", "note": "[LY354740, (1S,2S,5R,6S)-2-Aminobicyclo[3.1.0]hexane-2,6-dicarboxylic acid]", "values": [{"measurement": "duration of suppression of spontaneous activity", "setting": "[1]; injected IV", "result": "several tens of minutes"}, {"measurement": "time after injection to suppression of spontaneous activity", "setting": "[1]; injected IV", "result": "Several seconds"}, {"measurement": "effect on spontaneous activity in IC neurons", "setting": "[1]; injected IV, vast majority of IC neurons, awake mice", "result": "near complete suppression"}, {"measurement": "time after systemic drug administration at which background firing was suppressed", "setting": "[1]; single IC neuron, FIG. 12", "result": "About 5 min"}, {"measurement": "time until rate of background activity almost recovered to pre-drug level", "setting": "[1]; single IC neuron, FIG. 12", "result": "about 2 hours"}, {"measurement": "effect on sound-evoked firing", "setting": "[1]; single IC neuron, FIG. 12, systemic administration", "result": "unaffected"}, {"measurement": "effect on spontaneous activity in auditory neurons", "setting": "[1]; systemic activation of group II mGluRs, FIG. 10, 15", "result": "dramatically suppressed"}, {"measurement": "effect on sound evoked activity", "setting": "[2]", "result": "did not change or slightly increased"}, {"measurement": "increase of magnitude of startle responses", "setting": "[3]", "result": "at least 20%"}, {"measurement": "effect on gap detection performance", "setting": "[4]", "result": "not affected"}, {"measurement": "gap detection performance after systemic injection", "setting": "[5]", "result": "improvement of gap detection in this mouse to the control level"}]}
